Data reported in patent publication US20260248923A1, “BI-SPECIFIC ADAPTERS AND THEIR USE WITH UNIVERSAL CAR-T CELLS IN THE TREATMENT OF TUMORS AND THE INHIBITION OF CANCER-ASSOCIATED FIBROBLASTS” (priority 2023, published 2026).
Read-outs that look alike come from different tables or passages of the source.

Tests used:
[1] = test system: MDA-PSMA tumors (high PSMA level); test: MDA-PSMA tumor in NSG mice with anti-FITC CAR T-cells; conditions: for eradication of MDA-PSMA tumors: 10 million anti-FITC CAR T-cells
Procedure: MDA-PSMA cells (high PSMA level; 5 million cells) were implanted into each NSG mouse by subcutaneous injection. […] The tumor volume and body weight were monitored regularly. Tumor volume was calculated using the formula: (length*width^2)/2. […] MDA-PSMA cells (5 million) were implanted into each NSG mouse by subcutaneous injection. […] The volumes of the tumors and the body weights of the mice were monitored regularly. Tumor volume was calculated using the formula: (length*width^2)/2.

22Rv1 tumor = 22Rv1 tumor in NSG mice with anti-FITC CAR T cells; format: in vivo; conditions: 10 million anti-FITC CAR T cells
[2] = test system: MDA-MB-231-PSMA tumor cells; conditions: mouse, in vivo
Procedure: (§3) The mice were euthanized at the indicated time points after injection. Tumors were dissected and dissociated into single cells. Fluorescent intensity of FITC indicating the total retention of the adapters in the tumor cells were analyzed by flow cytometry. To analyze the surface retention of the adapters on the tumor cell surface, the dissociated tumor cells were stained with APC-anti-FITC antibody, and the fluorescent intensity of APC was analyzed by flow cytometry.

PSMA [3] = biological target: T1, PSMA (Homo sapiens, UniProt Q04609); test: Binding to MDA-PSMA cells by flow cytometry (MFI of FITC)
T1 construct: expressed in transfected cells; host or cells: MDA-MB-231 (MDA-PSMA / PSMA+ MDA-MB-231)
T1 sequence (Q04609 whole entry): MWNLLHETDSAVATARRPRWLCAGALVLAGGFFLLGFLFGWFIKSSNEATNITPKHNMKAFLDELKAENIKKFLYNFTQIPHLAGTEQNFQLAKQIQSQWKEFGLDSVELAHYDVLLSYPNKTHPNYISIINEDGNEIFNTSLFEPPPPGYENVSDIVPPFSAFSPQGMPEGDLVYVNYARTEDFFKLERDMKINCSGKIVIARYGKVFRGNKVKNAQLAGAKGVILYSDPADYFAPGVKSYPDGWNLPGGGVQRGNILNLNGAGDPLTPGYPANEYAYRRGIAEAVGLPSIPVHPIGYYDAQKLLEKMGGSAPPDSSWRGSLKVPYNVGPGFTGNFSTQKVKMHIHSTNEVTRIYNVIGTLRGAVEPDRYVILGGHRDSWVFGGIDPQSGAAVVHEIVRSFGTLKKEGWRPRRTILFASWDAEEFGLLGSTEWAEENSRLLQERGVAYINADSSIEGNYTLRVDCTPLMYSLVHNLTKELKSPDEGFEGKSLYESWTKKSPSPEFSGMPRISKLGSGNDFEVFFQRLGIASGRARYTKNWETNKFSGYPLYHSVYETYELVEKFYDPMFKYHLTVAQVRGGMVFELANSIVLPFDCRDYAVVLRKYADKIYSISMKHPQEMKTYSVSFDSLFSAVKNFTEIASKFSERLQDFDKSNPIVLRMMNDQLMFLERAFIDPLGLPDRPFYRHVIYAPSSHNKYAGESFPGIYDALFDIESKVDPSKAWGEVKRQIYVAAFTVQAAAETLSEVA
Procedure: (§1) MDA-PSMA cells (0.2 million) were incubated with 2-fold serial diluted adapters starting from 500 nM in complete RPMI medium (RPMI+10% FBS) for 1 hour at room temperature. Cells were washed twice with 2% FBS in PBS and resuspended in the same buffer. Fluorescent intensity of fluorescein isothiocyanate (FITC) was analyzed by flow cytometer.
MDA-PSMA cells (0.2 million) were incubated with 1 μM of DUPA-FITC conjugates with different PEG linkers in complete RPMI medium (RPMI+10% FBS) for 1 hour at room temperature. Free compounds were washed away, and fluorescent intensity of FITC was analyzed by flow cytometer. To analyze the surface exposure of FITC moiety, the stained cells were incubated with APC-anti-FITC on ice for 30 minutes.
as §1, with “FITC” for “fluorescein isothiocyanate (FITC)”

22Rv1 cells [4] = test: 22Rv1 / anti-FITC CAR T co-culture, 48 hours; format: cell-based
Procedure: The number of 22Rv1 cells was counted at the end of the co-culture. The cytotoxicity of anti-FITC CAR T cells was calculated using the formula: (number of untreated 22Rv1 cells−number of treated 22Rv1 cells)/number of untreated 22Rv1 cells*100%. Concentrations of IFNγ in the co-culture medium were analyzed by ELISA using human IFNγ ELISA kit (Biolegend).

MDA-PSMA cells = test: Retention in MDA-PSMA cells in vitro (confocal, flow cytometry); format: cell-based; conditions: 1 μM one hour, washed, 37 C
Procedure: (§2) Unbound compounds were washed away, and the cells were cultured in RPMI containing 10% FBS at 37° C. with 5% CO2. At indicated time points, the cells were imaged under a confocal microscope to analyze the intensity and location of FITC. […] To analyze the surface-bound FITC, the cells were stained with APC-anti-FITC antibody for 30 minutes on ice at different time points. The fluorescence intensity of APC was analyzed by flow cytometer.

22Rv1 cells [5] = test: Retention in 22Rv1 cells in vitro; format: cell-based; conditions: 1 μM one hour, washed, 37 C
Procedure: as §2

MDA-MB-231-PSMA tumors = test: Fluorescent imaging of MDA-PSMA tumor bearing mice; format: in vivo; conditions: 500 nmol/kg intravenously
Text: MDA-PSMA tumor bearing mice were intravenously injected with the indicated adapters at 500 nmol/kg. Fluorescent images of the mice were taken in the Spectral Ami imaging system at the indicated time points after injection.

[6] = test system: TagCAR (universal anti-fluorescein CAR); test: Competition assay against FL-AF647 on TagCAR T cells; format: binding; conditions: Ki=IC50/(1+[S]/Km), [FL-AF647]=100 nM, triplicates from different donors; read-out: mean calculated inhibitor constant (Ki)
Procedure: PSMAL1-PEG6-FITC strongly binds to TagCAR T cells generated using TagCAR lentiviral particles. […] Due to fluorescein fluorescence being quenched when bound by TagCAR, TagCAR T cells were instead incubated with saturating levels of FL-AF647, which was then competed off by increasing concentrations of PSMAL1-PEG6-FITC. As compared to the antigen-only control sodium fluorescein (NaFL), lower concentrations of PSMAL1-PEG6-FITC were necessary to compete with FL-AF647, as detected by the mean fluorescent intensity (MFI) of FL-AF647.

PSMA [7] = biological target: T1, PSMA; test: SurfaceTag on-cell binding to PSMA+ MDA-MB-231 tumor cells
Procedure: PSMAL1-PEG6-FITC strongly localizes on the surface of PSMA-positive tumor cells. To characterize the on-cell binding affinity of PSMAL1-PEG6-FITC to PSMA-expressing tumor cells, different concentrations of PSMAL1-PEG6-FITC were incubated with […] tumor cells that either over-expressed PSMA (PSMA^+) or were wildtype (PSMA−). Levels of surface fluorescein antigen on MDA-MB-321 tumor cells were detected using an anti-fluorescein antibody (FIG. 44A).

[8] = test system: PSMA+ MDA-MB-231 tumor cells; test: TagCAR T cell coculture with PSMA-overexpressing MDA-MB-231 tumor cells; format: cell-based
Procedure: PSMAL1-PEG6-FITC elicits dose-dependent TagCAR T cell function in vitro. The efficacy of TagCAR T cells generated as described in Example 42 mediated by PSMAL1-PEG6-FITC on PSMA-positive tumor cells was investigated in vitro. The normalized fold tumor cell growth of PSMA-overexpressing (PSMA^+) MDA-MB-231 tumor cells was measured every four hours during an 88-hour coculture of PSMA^+ MD-MB-231 tumor cells and different concentrations of PSMAL1-PEG6-FITC in the presence of TagCAR T cells generated as described in Example 42.
In addition, cytokine levels were measured in culture supernatants 24 hours following the addition of TagCAR T cells generated as described in Example 42 and different concentrations of PSMAL1-PEG6-FITC to PSMA MD-MB-231 tumor cells.
The presence of TagCAR+ cells (FIG. 45C) and presence of CD25+(FIG. 45D) in CD3+ T cells were also measured after 88 hours of coculture with PSMA^+ MDA-MB-231 tumor cells with different concentrations of PSMAL1-PEG6-FITC. CD3+ T cells with TagCAR had higher percentages of CD25+ as compared to CD3+ T cells without TagCAR.

[9] = test system: MDA-MB-231-PSMA tumor cells; test: Total and surface retention of adapters on MDA-PSMA tumor cells in vivo (flow cytometry)
Procedure: as §3

**Q.** Which results are given for `CC(C)(C)OC(=O)CC[C@H](NC(=O)N[C@@H](CCC(=O)OCc1ccccc1)C(=O)OC(C)(C)C)C(=O)OC(C)(C)C` (stereo in doubt) [DUPA-PEG6-FITC, 2-[3-(3-Benzyloxycarbonyl-1-tert-butoxycarbonyl-propyl)-ureido]pentanedioic Acid Di tert-butyl Ester]?
**A.** eradication of MDA-PSMA tumors [1]: good efficacy on eliminating MDA-PSMA tumors; body weight loss ([1]; mouse, in vivo): no body weight loss was observed; growth of 22Rv1 tumor (22Rv1 tumor): didn't show much efficacy; tumor cells that retained adapter on the surface [2]: 9%; tumor cells that still had adapter in the cells (total FITC) [2]: 13%

**Q.** With `O=C(O)CC[C@H](NC(=O)N[C@@H](CCCCNC(=O)[C@H](Cc1ccc2ccccc2c1)NC(=O)[C@H]1CC[C@H](CNC(=O)CCOCCOCCOCCOCCOCCOCCNC(=S)Nc2ccc(-c3c4ccc(=O)cc-4oc4cc(O)ccc34)c(C(=O)O)c2)CC1)C(=O)O)C(=O)O` [PSMAL1-PEG6-FITC] as the molecule, how does the “binding affinity relative to DUPA-PEG6-FITC” value (PSMA [3]) read?
**A.** five-fold higher

**Q.** What about the “binding affinity and total binding (MFI of FITC)” value (PSMA [3]; 1 hour room temperature) of the same molecule?
**A.** Higher Binding Affinity and Higher Total Binding than DUPA-PEG6-FITC

**Q.** And the “lysis of 22Rv1 cells by anti-FITC CAR-T cells” value (22Rv1 cells [4]; low concentration)?
**A.** much higher than DUPA-PEG6-FITC at low concentration

**Q.** What about the “IFNγ secreted by anti-FITC CAR-T cells” value (22Rv1 cells [4]; low concentrations) of the same molecule?
**A.** higher than DUPA-PEG6-FITC at low concentrations

**Q.** And the “eradication of MDA-PSMA tumors” value [1]?
**A.** good efficacy on eliminating MDA-PSMA tumors

**Q.** And the body weight loss ([1]; during treatment)?
**A.** no body weight loss was observed

**Q.** And the “retention in MDA-MB-231-PSMA cells (confocal images)” value (MDA-PSMA cells)?
**A.** stayed longer in MDA-MB-231-PSMA cells than DUPA-PEG6-FITC

**Q.** And the “retention in MDA-PSMA cells expressing different levels of PSMA (flow cytometry)” value (MDA-PSMA cells)?
**A.** stayed longer in MDA-PSMA cells expressing different levels of PSMA than DUPA-PEG6-FITC

**Q.** What about the “retention in 22Rv1 cells (flow cytometry)” value (22Rv1 cells [5]) of the same molecule?
**A.** stayed longer in 22Rv1 cells

**Q.** What about the “retention in MDA-MB-231-PSMA tumors (fluorescent images)” value (MDA-MB-231-PSMA tumors) of the same molecule?
**A.** Better Retention in MDA-MB-231-PSM4 Tumors than DUPA-PEG6-FITC and DUPA-FITC

**Q.** What about the “growth of 22Rv1 tumor” value (22Rv1 tumor) of the same molecule?
**A.** inhibited the growth of 22Rv1 tumor significantly

**Q.** What about the Ki [6] of the same molecule?
**A.** 9.9 nM

**Q.** What about the “Bmax (total antigen amount)” value (PSMA [7]; PSMA+ tumor cells) of the same molecule?
**A.** 2.6×10^6 MFI

**Q.** What about the Kd (PSMA [7]; PSMA+ tumor cells, anti-fluorescein antibody, read-out: Kd (on-cell binding affinity)) of the same molecule?
**A.** 1.29 nM

**Q.** And the “localization on surface of PSMA-expressing tumor cells” value (PSMA [7]; PSMA+ vs PSMA- cells)?
**A.** specifically localized on the surface of PSMA-expressing tumors

**Q.** What about the “normalized fold tumor cell growth” value ([8]; 88-hour coculture with TagCAR T cells) of the same molecule?
**A.** tumor size decreased

**Q.** And the “IFNg and IL-2 levels in culture supernatants” value ([8]; 24 hours)?
**A.** increased with increasing doses

**Q.** What about the “tumor cells that retained adapter on the surface” value ([9]; 48 hours post-injection) of the same molecule?
**A.** 65%

**Q.** What about the “tumor cells that still had adapter in the cells (total FITC)” value ([9]; 48 hours post-injection) of the same molecule?
**A.** 77%

**Q.** And the “tumor cells that retained adapter (total FITC)” value ([9]; 144 hours post-injection)?
**A.** 45%

**Q.** What about the “tumor cells that retained adapter on the surface” value ([9]; 144 hours post-injection) of the same molecule?
**A.** 34%
